Assays:
[1] = test system: PLA2; conditions: coinjection with PLA2; cited from earlier work
[2] = test system: phospholipase A2 (PLA2); conditions: cited from earlier work
[3] = test system: GRP78 promoter; assay: GRP78-luc reporter assay in stably transfected U87-MG clone A5; format: cell-based, human; conditions: for GRP78 promoter driven luciferase (GRP78-luc) expression: result in words
Protocol: The promoter region contains the sequence of the GRP78 promoter from −139 to +7. In this part of the promoter there are three ER stress responsive elements and the TATA box to which is linked in frame the firefly luciferase sequence.
Compounds were plated in half area 96 well plates at the final concentration of 2 μM in 5 μl of media. Cells were added in 45 μl afterwards at the density of 5000/well. Plates were read after 16 h in an Envision high efficiency plate reader. Results are represented as a plate layout in which different shadings indicate the different rows and the number indicate the different lines. As a standard negative and positive controls were located in the outer columns.
A construct coding a large part of the human GRP78 promoter, attached to the reporter gene firefly luciferase was used (see FIG. 16 for a schematic) (Yoshida et al., 1998).
The promoter region contains the sequence of the GRP78 promoter from −139 to +7. In this part of the promoter there are three ER stress responsive elements and the TATA box to which is linked in frame the firefly luciferase sequence (FIG. 16)(Yoshida et al., 1998). The construct, which was cloned in an expression vector, was transfected into E. Coli, amplified, purified and checked it by enzymatic digestion. Thereafter, C6 and U87-MG were transiently transfected with the plasmid. After 24 hours the cells were challenged with THAP and TUN for 24 hours. Although, in transient transfection only a small part of the cell population expresses the transduced gene, a significant induction by THAP and TUN was detected over 24 hours. Armed with these encouraging data human glioma cells U87-MG were transfected with both the above described construct and a construct carrying resistance to blasticidin. The sensitivity of these cells to the antibiotic has previously been assessed. 24 hours after the transfection the antibiotic at its 75% inhibitory concentration was added. The cells were given time to proliferate. Two pools called P2 and P5 were selected and luciferase expression was assessed. […] Clones from these two pools were isolated. Luciferase expression in the clones was characterized and a clone called A5, in which baseline expression of the construct was reasonably low and induction with two positive controls was large and consistent, was selected. This clone, several back up clones, and the pools were amplified and frozen in sufficient amounts to guarantee continuity in case needed. Next, the effect of the incubation time on luciferase induction was assessed. Since this assay can be affected by false negative due to toxicity of hit compounds, the incubation times were kept as short as possible. Therefore, several incubation times were tested, including 8, 16 and 24 h. The goal was not to incubate longer than 24 hours because toxicity starts to develop at that time point. […] At this time point the induction is about 6-7 fold. Previously, using a different assay, a half a million compound library was screened very easily using 2.5 thousands cells per well in 1536 plates. […] With this cell number the dynamic range is large and the fold of induction of 6-7 is maintained.
It is common practice in the field of high throughput screening to assess the so called z number of the assay. This statistical parameter indicates the suitability of a given assay for high throughput screening. The z-value in a word describes the likelihood of a single point hit not to be false positive. The z value is a number lower than or equal to one. Values above 0.5 indicate a robust assay. Values below 0.5 but above 0 indicate an assay that probably needs to be run in duplicate. Negative values indicate assays whose predictability is very low. Z values are usually determined in a high density format plate usually a 96 well plate in manual conditions or a 384-1536 plate format in automated liquid handling environment. Z value determination has been performed using half area 96 well plates in manual mode. […]

[4] = test system: glioma cells; assay: Gliotoxicity, cell line not stated; format: cell-based; conditions: cell line not stated
Text: Spiperone is a selective D2 dopamine receptor antagonist. This drug is used in the treatment of schizophrenia and other hallucinatory states. […] In an effort to develop Structure-Activity Relationships around the chosen compounds, a search of commercially available compounds that are either close structural analogs of these lead compounds (for example, acridine and quinoline analogs of quinacrine) or are related to these in terms of their pharmacological activity (dopamine receptor antagonists related to spiperone) was performed.

[5] = test system: tumor cells; conditions: in vitro and in vivo; cited from earlier work
[6] = test system: p53; conditions: cited from earlier work
[7] = test system: NF-κB; conditions: tumor cells; cited from earlier work
[8] = test system: U87-MG skin xenograft tumor explants; assay: U87-MG skin xenograft tumor explants, ERSR markers; format: in vivo, mice; conditions: samples after 7 and 21 days
Text: U7 represents vehicle treated sample after 7 days. U21 represents vehicle treated sample after 21 days. Q7 represents quinacridine-treated sample after 7 days. Q21 represents quinacridine-treated sample after 21 days. 9AA-7 represents 9-aminoacridine-treated sample after 7 days. 9AA-21 represents 9-aminoacridine-treated sample after 21 days.

[9] = test system: DNA; conditions: cited from earlier work
[10] = test system: subcutaneous U87-MG gliomas; assay: Mice bearing subcutaneous U87-MG gliomas; format: in vivo
Text: The estimated survival prolongment is 14 days in mice life which compares at 851 days in human life based on a life expectancy of 18 months in mice and 90 years in human. Also, since one animal was tumor-free at the end of the treatment that translates in an expected 16% cure rate.
FIG. 29a graphs % tumor weight/control as a function of days after implantation. […] Such a profile indicates effectiveness in vivo for both treatment and for prevention of relapse. FIG. 29b graphs % animal survival as a function of days after implantation. […] Such a profile indicates effectiveness in vivo for both treatment and for prevention of relapse.
Mice bearing subcutaneous gliomas were received daily oral administration of 200 mg/kg of quinacrine. […] In FIG. 29 is shown the effect of 100 mg/kg of quinacrine and 10 mg/kg 9-aminoacridine in Mice bearing subcutaneous U87-MG gliomas.

[11] = test system: C6; assay: TUNEL labeling in C6; format: cell-based, rat; conditions: C6, 24 hours
Protocol: C6 were plated on glass coverslips. Cells were fixed and stained accordingly to manufacturer instructions. Propidium staining of the nuclei was replaced by Hoechst included in the mounting media. Several images were acquired with a high resolution camera on a microscope equipped with a 10× long working distance dry lens and analyzed with powerful commercial software. Results were expressed in the graph as green labeled pixel counts. The images from the top to the bottom are respectively from N.T., DMSO, Thap 20 nM, Thap 200 nM, STS100 nM. The blue images reflect nuclear staining while the images on the right represent BRDU staining.
Thereafter, cells were harvested and protein extracted. Procaspase 12 band at 65 kDa was identified. In some of the treatments, the active product at 45 kDa was also detected. […] Conversely, in C6, higher GRP78 levels and the cell environment reflect significant caspase activation. […] Caspase activation in ERSR conditions was also confirmed with a TUNEL based apoptosis detection system in C6. […] High resolution images of the experiments were acquired and image morphometric analysis was performed to determine quantitative parameters of the staining as previously described (Pascale et al., 2004, “Translocation of protein kinase C-betaII in astrocytes requires organized actin cytoskeleton and is not accompanied by synchronous RACK1 relocation.” Glia 46(2): 169-82). […]

[12] = test system: C6; assay: [Ca2+]i measurement in C6; format: cell-based, rat
Text: (Statistical analysis it is shown in the inset. Values at the peak of the response have been analyzed using ANOVA followed by T-test, ** indicate P<0.01.).
Ca^2+ mobilization from ER was caused using an agonist acting via inositol trisphosphate elevation, mimicking physiological responses. In these conditions the dynamics of Ca^2+ transients were observe in these two cell lines. It appears evident that the plateau phase in C6 is consistently larger than in astrocytes.
Panel A: Challenge of astrocytes with ATP show the unchanged typical spike and plateau response. Panel B: In C6 an oscillatory pattern is readily detectable in response to treatment with TUN.
Tools and protocols have been developed to cleanly observe capacitative Ca^2+ entry (CCE), the phenomenon that allows the replenishment of intracellular Ca^2+ (ICS) stores and make quantitative and qualitative assessments. In particular, in astrocytes, capacitative Ca^2+ entry happens in absence of cytoplasmic Ca^2+ concentration ([Ca^2+]i) elevation (Grimaldi; 2006)(FIG. 1). […] The study was designed to investigate if there was a difference between astrocytes and glial cancer cells in this distinctive homeostatic pattern. The findings presented in this study, indicate that there are striking differences between glial cells and their cancer counterpart. The model utilizes rat cells but the observations extend and apply to human glioma cells as well. When the responses of normal astrocytes and C6 cells to thapsigargin (THAP), an agent able to block SERCA, therefore causing the release of Ca^2+ from the ER, were compared it was evident that C6 was more sensitive to the THAP (FIG. 2). However, the difference can be ascribed to one of many possibilities. […]
This phase is dependent on the balance of Ca^2+ influx triggered by store depletion and the reuptake in the ER due to SERCA activity. […] To investigate the role of influx triggered by ICS depletion, CCE was analyzed following THAP-induced depletion of ICS. […]

[13] = full dose over about 45 days, Q oral, 9-AA I.P.
[14] = half dose (maintenance dose) up to about 60 days

CCN(CC)CCCC(C)Nc1c2ccc(Cl)cc2nc2ccc(OC)cc12.Cl.Cl (stereo not drawn) [quinacrine hydrochloride, 6-chloro-9-((4-(diethylamino)-1-methylbutyl)amino)-2-methoxyacridine dihydrochloride]
reduction of the inflammogenic potency of PLA2 [1]: 64%
PLA2 inhibition in platelets [2]: phospholipase A2 (PLA2) inhibitor

CCN(CC)CCCC(C)Nc1c2cc(OC)ccc2nc2cc(Cl)c(N)cc12 (stereo not drawn) [OSSL-053454, 3-chloro-N^9-(5-(diethlyamino)pentan-2-yl)-7-methoxy acridine-2,9-diamine]
GRP78 promoter driven luciferase (GRP78-luc) expression [3]: causes an increase of the GRP78-luc reporter gene similar to the increase caused by quinacrine
GRP78 promoter driven luciferase (GRP78-luc) expression ([3]; listed as OSSL 53454): causes an increase of the GRP78-luc reporter gene as quinacrine
gliotoxicity [4]: causes gliotoxicity similar to that caused by quinacrine
gliotoxicity ([4]; listed as OSSL 53454): causes gliotoxicity

Cl.Nc1c2ccccc2nc2ccccc12.O [9-aminoacridine, hydrate, hydrochloride]
GRP78 promoter driven luciferase (GRP78-luc) expression ([3]; hydrate, hydrochloride): causes increased expression of the GRP78-luc reporter gene
gliotoxicity [4]: causes gliotoxicity

Nc1c2ccccc2nc2ccccc12 [9-aminoacridine]
toxicity to tumor versus normal cells [5]: more toxic to tumor than to normal cells
p53 activation and p53-dependent killing of tumor cell types [6]: capable of p53 activation and p53-dependent killing
stimulated and basal constitutive NF-κB activity [7]: block stimulated NF-κB activity and also effectively reduce basal levels of constitutive NF-κB activity
ERSR activation and GRP78 target protein in tumor explants [8]: activaiton of ERSR and changes in GRP78 target protein
caspase 12 activation in tumor explants [8]: activation of caspase 12 is evident
DNA damaging activity [9]: not found to show DNA damaging activity
cure rate ([10]; 10 mg/kg 9-aminoacridine): 77%
antiglioma action ([10]; 100 mg/kg of quinacrine and 10 mg/kg 9-aminoacridine): powerful antiglioma action
tumor once survival rate stabilized ([10]; 9-AA I.P.): no sign of tumor
animal survival rate compared to control [10, 13]: increased survival rate
tumor size compared to control [10, 13]: decrease in tumor size
animal survival rate compared to control [10, 14]: survival rate was high
tumor size compared to control [10, 14]: tumor size remained relatively constant

O=C(CCCN1CCC2(CC1)C(=O)NCN2c1ccccc1)c1ccc(F)cc1 [spiperone]
hit in Prestwick library screening (value above average of negative controls + 3 SD) ([3]; 2 μM, 5000 cells/well, read after 16 h): potentially attractive lead compounds

CN[C@@H]1C[C@H]2O[C@@](C)([C@@H]1OC)n1c3ccccc3c3c4c(c5c6ccccc6n2c5c31)C(=O)NC4 [staurosporin]
TUNEL labeling [11]: clear increase of TUNEL labeling

Nc1ncnc2c1ncn2[C@@H]1O[C@H](COP(=O)(O)OP(=O)(O)OP(=O)(O)O)[C@@H](O)[C@H]1O [ATP]
[Ca2+]i response of C6 to ATP compared with astrocytes [12]: increased elevation of [Ca^2+]i
